From US20050256034A1, “Dioxolane analogs for improved inter-cellular delivery” (priority 2000, published 2005)
Where “and” joins values, the source holds several entries; their conditions need not be identical. Equal values may be shown once. Read-outs that look alike come from different tables or passages of the source.

Tests used:
Type in all cases: cell-based
CEM/dCK- = test: MMT or WST-1 assay at 72 hr; conditions: for Resistance Factor: CEM/dCK- versus CCRF-CEM
[1] = 3H-Thymidine Incorporation Assay (24 hr drug, wash, another 48 hr; 72 hr assay); conditions: for Resistance Factor = Ratio of dCK- on Wild-type CCRF-CEM / Factor (Resistance Factor = Ratio of dCK- on Wild-type CCRF-CEM): ratio of IC50 CEM/dCK- to IC50 CCRF-CEM; for Factor (Resistance Factor = Ratio of dCK- on Wild-type CCRF-CEM): 24 h exposure
H-460 = test: MTT assay at 72 hr; conditions: Homo sapiens, NCI-H460, read-out: IC50 (MTT at 72 hr) H-460, 24 h exposure, single experiments
MCF-7 = test: MTT assay at 72 hr; conditions: Homo sapiens, MCF7, read-out: IC50 (MTT at 72 hr) MCF-7, 24 h exposure, single experiments
SF-268 = test: MTT assay at 72 hr; conditions: Homo sapiens, SF-268, read-out: IC50 (MTT at 72 hr) SF-268, 24 h exposure, single experiments
CCRF-CEM = test: MMT or WST-1 assay at 72 hr; conditions: Homo sapiens, read-out: IC50 (MMT or WST-1 at 72 hr) CCRF-CEM, 24 h exposure, single experiments
CEM cells = test: CellTiter 96 cell proliferation assay, 48 h exposure; conditions: for effect of es transport inhibitor NBMPR on resistance of CEM cells: presence of NBMPR
Experimental: The chemosensitivity of suspension cells lines (e.g., CEM or CEM-derivatives) is assessed using the CellTiter 96 ? proliferation assay. […] Chemosensitivity is expressed as 50% (ECso) of the dose response curve determined, e.g., using GraphPad Prism 2.01 (GraphPad Software, San Diego, Calif.). Adherent cell lines (e.g., DU145 or DU145^R) are seeded (˜10^5 cells) in triplicate dishes, 24 h before drug exposure. Growth inhibition is determined by trypsinization and counting cells electronically.

[2] = CCRF-CEM, read-out: IC50 (3H-TdR incorporation at 72 hr) CCRF-CEM 24 h, CCRF-CEM T-cell leukemia, 24 hr exposure to drug, wash, another 48 hr
[3] = CCRF-CEM, read-out: IC50 (3H-TdR incorporation at 72 hr) CEM/dCK- 24 h, CEM/dCK- (CCRF-CEM deoxycytidine kinase-deficient), 24 hr exposure to drug, wash, another 48 hr
[4] = NCI-H460, read-out: IC50 (3H-TdR incorporation at 72 hr) H-460 24 h, H-460 human lung carcinoma, 24 hr exposure to drug, wash, another 48 hr

CCCCC(C)(C)C(=O)OC[C@H]1OC[C@@H](n2ccc(N)nc2=O)O1.Cl [Compound 107, 2,2-DIMETHYLHEXANOIC ACID 4-(4-AMINO-2-OXO-2H-PYRI- MIDIN-1-YL)-1,3-DI- OXOLAN-2-YLMETHYL ESTER HYDROCHLORIDE]
Resistance Factor (CEM/dCK-): 2,042

Nc1ccn([C@@H]2CO[C@H](COC(=O)C34CCC[C@@H]5C[C@@H]3C[C@H]5C4)O2)c(=O)n1 [Compound 232, HEXAHYDRO-2,5-METHANO-PENTA- LENE-3A-CARBOXYLIC ACID 4-(4-AMINO-2-OXO-2H-PYRIMI- DIN-1-YL)-[1,3]DI- OXOLAN-2-YL METHYL ESTER]
IC50 [1, 2]: 0.0037 µM
IC50 [1, 3]: 5.8 µM
IC50 [1, 4]: 0.00053 µM
IC50 ([1]; read-out: IC50 (3H-TdR incorporation at 72 hr) CCRF-CEM 24 h, CCRF-CEM T-cell leukemia, 24 hr exposure to drug, wash, another 48 hr): 0.0019 µM
IC50 ([1]; read-out: IC50 (3H-TdR incorporation at 72 hr) CEM/dCK- 24 h, CEM/dCK- (CCRF-CEM deoxycytidine kinase-deficient), 24 hr exposure to drug, wash, another 48 hr): 4.5 µM
IC50 ([1]; read-out: IC50 (3H-TdR incorporation at 72 hr) H-460 24 h, H-460 human lung carcinoma, 24 hr exposure to drug, wash, another 48 hr): 0.00038 µM
IC50 (H-460): 6.9 nM
IC50 (MCF-7): 20 nM
IC50 (SF-268): 160 nM
IC50 (CCRF-CEM): 10 nM
Resistance Factor (CEM/dCK-): 210
IC50 (CEM/dCK-; read-out: IC50 (MMT or WST-1 at 72 hr) CEM/dCK-, 24 h exposure, single experiments): 2100 nM

Cc1ccc(C)c(OCCCC(C)(C)C(=O)OC[C@H]2OC[C@@H](n3ccc(N)nc3=O)O2)c1 [Compound 237]
IC50 [1, 2]: 0.0016 µM
IC50 [1, 3]: 18 µM
IC50 ([1]; MCF7, read-out: IC50 (3H-TdR incorporation at 72 hr) MCF-7 24 h, MCF-7 human breast carcinoma, 24 hr exposure to drug, wash, another 48 hr): ≤ 0.0001 µM
IC50 [1, 4]: 0.0026 µM
IC50 ([1]; SF-268, read-out: IC50 (3H-TdR incorporation at 72 hr) SF-268 24 h, SF-268 human central nervous system tumor, 24 hr exposure to drug, wash, another 48 hr): 0.088 µM
Resistance Factor = Ratio of dCK- on Wild-type CCRF-CEM [1]: 11,250
IC50 (SF-268): 3300 nM

CC(CCCCCCc1ccccc1)C(=O)OC[C@H]1OC[C@@H](n2ccc(N)nc2=O)O1 (stereo partly drawn) [Compound 245, 2-METHYL-8-PHENYL-OCTANOIC ACID 4-(4-AMINO-2-OXO-2H-PYRI- MIDIN-1-YL)-[1,3]DI- OXOLAN-2-YL METHYL ESTER]
Resistance Factor = Ratio of dCK- on Wild-type CCRF-CEM [1]: > 6800

CC(C)C[C@H](N)C(=O)Nc1ccn([C@@H]2CO[C@H](CO)O2)c(=O)n1 [Compound 257, 2-AMINO-4-METHYL-PENTANOIC ACID[1-(2-HYDROXY- METHYL-[1,3]DIOXO- LAN-4-yl)-2-OXO-1,2-DIHYDRO-PYRI- MIDIN-4-YL]-AMIDE]
Resistance Factor (CEM/dCK-): >19

CC(C)C[C@H](NC(=O)[C@H](C)NC(=O)OC(C)(C)C)C(=O)Nc1ccn([C@@H]2CO[C@H](CO)O2)c(=O)n1 [Compound 263, (1-{1-[1-(2-HYDROXY- METHYL-[1,3]DIOXO- LAN-4-YL)-2-OXO-1,2-DI- HYDRO-PYRIMIDIN-4-YLCARBA- MOYL]-3-METHYL-BUTYL- CARBAMOYL}-ETHYL)-CARBAMIC ACID TERT-BUTYL ESTER]
Resistance Factor (CEM/dCK-): >5 and >7

CC(C)CCCCC(=O)Nc1ccn([C@@H]2CO[C@H](COC(=O)CCCCC(C)C)O2)c(=O)n1 [Compound 276, 6-METHYL-HEPTANOIC ACID 4-[4-(6-METHYL-HEPTANOYL- AMINO)-2-OXO-2H-PYRI- MIDIN-1-YL]-[1,3]DI- OXOLAN-2-YL METHYL ESTER]
IC50 ([1]; CCRF-CEM, read-out: IC50 in μM (3H-TdR incorporation at 72 hr) CCRF-CEM 24 h, CCRF-CEM T-cell leukemia, 24 h exposure to drug, wash, another 48 hr): 0.028 µM
IC50 ([1]; MCF7, read-out: IC50 in μM (3H-TdR incorporation at 72 hr) MCF-7 (72 h), MCF-7 human breast carcinoma, 72 h exposure): 0.0017 µM
IC50 ([1]; NCI-H460, read-out: IC50 in μM (3H-TdR incorporation at 72 hr) H-460 (72 h), H-460 human lung carcinoma, 72 h exposure): 0.025 µM
IC50 ([1]; SF-268, read-out: IC50 in μM (3H-TdR incorporation at 72 hr) SF-268 (72 h), SF-268 human central nervous system tumor, 72 h exposure): 0.018 µM
Factor (Resistance Factor = Ratio of dCK- on Wild-type CCRF-CEM) [1]: 957

CC(C)(C)C(=O)OC[C@H]1OC[C@@H](n2ccc(N)nc2=O)O1 [Compound 279, 2,2-DIMETHYL-PROPIONIC ACID 4-(4-AMINO-2-OXO-2H-PYRI- MIDIN-1-YL)-[1,3]DI- OXOLAN-2-YL METHYL ESTER]
Factor (Resistance Factor = Ratio of dCK- on Wild-type CCRF-CEM) [1]: 1854 and >1205

CC(C)[C@H](N)C(=O)Nc1ccn([C@@H]2CO[C@H](CO)O2)c(=O)n1.O=C(O)C(F)(F)F [Compound 280, 2-Amino-N-[1-(2-hydroxy-methyl-[1,3]dioxo-lan-4-yl)-2-oxo-1,2-di-hydro-pyrimidin-4-yl]-3-meth-yl-butyramide; trifluoroacetic acid salt]
Factor (Resistance Factor = Ratio of dCK- on Wild-type CCRF-CEM) [1]: >53

Nc1ccn([C@@H]2O[C@H](CO)[C@@H](O)[C@@H]2O)c(=O)n1 [Cytarabine, cytarabine]
effect of es transport inhibitor NBMPR on resistance of CEM cells (CEM cells): significantly increased resistance

Nc1ccn([C@@H]2O[C@H](CO)[C@@H](O)C2(F)F)c(=O)n1 [Gemcitabine, gemcitabine]
EC50 (CEM cells; Homo sapiens, CCRF-CEM, 48 h, read-out: Chemosensitivity, 50% of the dose response curve (EC50), CEM + NBMPR (100 nM), 48 h exposure, mean ± SD): 70 ± 18 nM
effect of es transport inhibitor NBMPR on resistance of CEM cells (CEM cells): significantly increased resistance
